# Reference: PMC5737116, “Biochemical Properties of Human D-Amino Acid Oxidase” (Frontiers in Molecular Biosciences, 2017)
# “Also recorded” adds a separate entry of the source. Where two headings read alike, the source gives them in different places.
# What was measured:
# hDAAO holoenzyme [1] = target: T1, hDAAO holoenzyme (Homo sapiens, UniProt P14920); test: Ligand binding to hDAAO, protein fluorescence quenching; conditions: for Kd: 15°C
# T1 construct: made in house; host or cells: E. coli
# T1 sequence (P14920 whole entry): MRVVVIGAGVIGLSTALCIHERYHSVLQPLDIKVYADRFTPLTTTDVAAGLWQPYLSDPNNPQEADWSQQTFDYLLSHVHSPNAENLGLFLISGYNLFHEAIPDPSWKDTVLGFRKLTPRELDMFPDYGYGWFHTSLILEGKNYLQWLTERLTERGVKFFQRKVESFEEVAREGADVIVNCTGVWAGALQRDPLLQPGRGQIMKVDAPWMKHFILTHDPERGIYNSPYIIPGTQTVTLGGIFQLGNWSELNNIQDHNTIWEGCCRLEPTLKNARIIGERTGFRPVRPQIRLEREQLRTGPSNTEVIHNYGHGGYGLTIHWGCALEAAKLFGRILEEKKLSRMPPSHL
# hDAAO [2] = target: T2, hDAAO (Homo sapiens, UniProt P14920); test: Modulation of hDAAO activity, standard activity assay; assay type: biochemical; conditions: for effect on hDAAO activity on D-alanine: D-alanine 2 or 28 mM, simultaneous 10 mM magnesium ions and 10 μM nucleotide
# T2 construct: made in house; host or cells: E. coli
# T2 sequence (P14920 whole entry): as above
# Method: The effect of MgCl2 and CaCl2 (1 or 10 mM), of 10 μM ATP or GTP and of both divalent ions and nucleotides was assessed using the standard activity assay.
# hDAAO [3] = target: T2, hDAAO; test: Oxygen-consumption activity assay, apparent kinetic parameters (substrate specificity); assay type: biochemical; conditions: for kcat / Km: apparent, 21% oxygen saturation, pH 8.5, 25°C; for oxidation by hDAAO: at 100 and 500 mM final concentration
# hDAAO [4] = target: T2, hDAAO; conditions: cited from earlier work
# hDAAO apoprotein [5] = target: T3, hDAAO apoprotein (Homo sapiens, UniProt P14920); test: FAD binding to hDAAO apoprotein, protein fluorescence quenching; conditions: 15°C
# T3 construct: made in house; host or cells: E. coli
# T3 sequence (P14920 whole entry): as above
# Method: Protein fluorescence spectra were measured at 1 μM protein concentration (0.04 mg/mL) in 20 mM Tris-HCl buffer, pH 8.0, 100 mM NaCl, 10% (v/v) glycerol, 5 mM 2-mercaptoethanol, and 40 μM FAD for the holoenzyme and in 50 mM sodium pyrophosphate, pH 8.3 for the apoprotein; spectra were recorded using a Jasco FP-750 instrument and were corrected for the buffer contribution. Protein fluorescence spectra were recorded between 300 and 400 nm, with excitation at 280 nm. […] In all cases, Kd-values were determined using an hyperbolic plot.
# hDAAO apoprotein [6] = target: T3, hDAAO apoprotein; test: Holoenzyme reconstitution, decrease in flavin fluorescence at 528 nm; assay type: binding
# Method: The holoenzyme reconstitution process was also investigated by adding increasing concentrations of apoprotein to ~1 μM of FAD and following the decrease in flavin fluorescence at 528 nm (excitation at 450 nm).
# hDAAO apoprotein [7] = target: T3, hDAAO apoprotein; conditions: cited from earlier work
# hDAAO [8] = target: T2, hDAAO; test: Inhibition of D-serine oxidation by L-serine; assay type: biochemical
# hDAAO [9] = target: T2, hDAAO; test: Reduction of FAD following anaerobic addition of L-amino acid; assay type: biochemical
# Method: The ability of L-serine to bind at the hDAAO active site like the corresponding D-enantiomer is further confirmed by the observed reduction of FAD following anaerobic addition of the L-amino acid: 14 μM of hDAAO was reduced by 1 mM L-serine in >60 min.
# hDAAO [10] = target: T2, hDAAO; conditions: following enzyme inactivation; ref Kawazoe et al., 2006; cited from earlier work
# hDAAO [11] = target: T2, hDAAO; conditions: cited from earlier work; remark: listed apart in the source
# hDAAO holoenzyme [12] = target: T1, hDAAO holoenzyme; test: Far-UV CD spectrum of hDAAO in the presence of ions and nucleotides; conditions: 1 or 10 mM
# Method: Circular dichroism (CD) spectra were recorded using a Jasco J-815 spectropolarimeter (Jasco Co., Cremella, Italy) in 10 mM Tris-HCl, pH 8.0, 1% (v/v) glycerol, and 40 μM FAD. The cell path length was 0.1 cm for measurements in the 200- to 250-nm region (0.1 mg protein/mL) and 1 cm for measurements in the 250–350 nm range (0.4 mg protein/mL) (Caldinelli et al., [2010]).
# [13] = apparent, 21% oxygen saturation, pH 8.5, 25°C, ref Molla et al., 2006
# [14] = value in brackets, ref Raibekas et al., 2000
# [15] = at pH 8.3, ref Kawazoe et al., 2007b
# [16] = apparent, 21% oxygen saturation, pH 8.5, 25°C, ref Frattini et al., 2011
smiles,measurement,setting,value
Nc1ncnc2c1ncn2[C@@H]1O[C@H](COP(=O)(O)OP(=O)(O)OP(=O)(O)O)[C@@H](O)[C@H]1O [ATP],change in protein fluorescence,hDAAO holoenzyme [1]; up to 20 mM,no change
same,effect on hDAAO activity on D-alanine,hDAAO [2],not modified
C[C@@H](N)C(=O)O [D-Alanine],specific activity,"hDAAO [3]; saturating D-alanine concentration (28 mM), 25°C, pH 8.5, 200 μM FAD",9.5 U/mg protein
same,Km,hDAAO [4]; [13],1300 ± 200 µM
same,kcat,hDAAO [4]; [13],5.2 ± 0.1 s⁻¹
same,Km,hDAAO [4]; [14],1000 µM
same,kcat,hDAAO [4]; [14],10 s⁻¹
N[C@H](CC(=O)O)C(=O)O [D-Aspartate],kcat,hDAAO [4]; [13],6.7 ± 1.2 s⁻¹
same,kcat,"hDAAO [4]; apparent, 21% oxygen saturation, pH 8.5, 25°C, ref Molla et al., 2006, listed as D-aspartate",6.7 s⁻¹
"N[C@H](Cc1ccc(O)c(O)c1)C(=O)O [D-DOPA, 3,4-dihydroxyphenylalanine]",Ki,hDAAO [3],41300 µM
same,kcat,hDAAO [3],~ 40 s^−1
same,Km,hDAAO [3]; read-out: Km,6000 ± 1300 µM
same,Km,hDAAO [4]; [15],1500 µM
same,kcat,hDAAO [4]; [15],21.7 s⁻¹
same,Ki,"hDAAO [4]; substrate inhibition effect, at pH 8.3, ref Kawazoe et al., 2007b",500 µM
N[C@H](CCC(=O)O)C(=O)O [D-Glutamate],Km,hDAAO [3],b. d.
same,kcat,hDAAO [3],b. d.
same,oxidation by hDAAO,hDAAO [3],not oxidized
same,change in protein fluorescence,hDAAO holoenzyme [1]; up to 50 mM,no change
Nc1ccccc1C(=O)C[C@@H](N)C(=O)O [D-Kynurenine],kcat,hDAAO [3],0.09 ± 0.01 s⁻¹
same,Km,hDAAO [3]; read-out: Km,700 ± 400 µM
N[C@H](Cc1ccccc1)C(=O)O [D-Phenylalanine],Km,hDAAO [4]; [16],2700 ± 200 µM
same,kcat,hDAAO [4]; [16],6.6 ± 0.1 s⁻¹
same,Km,hDAAO [4]; [15],1200 µM
same,kcat,hDAAO [4]; [15],15.5 s⁻¹
O=C(O)[C@H]1CCCN1 [D-Proline],Km,hDAAO [4]; [13],8500 ± 1000 µM
same,kcat,hDAAO [4]; [13],10.2 ± 0.1 s⁻¹
N[C@H](CO)C(=O)O [D-Serine],Km,hDAAO [4]; [13],7500 ± 500 µM
same,kcat,hDAAO [4]; [13],3.0 ± 0.1 s⁻¹
same,Km,hDAAO [4]; [15],3900 µM
same,kcat,hDAAO [4]; [15],4 s⁻¹
same,Km,hDAAO [4]; [14],1000 µM
N[C@H](Cc1c[nH]c2ccccc12)C(=O)O [D-Tryptophan],Km,hDAAO [4]; [16],1500 ± 100 µM
same,kcat,hDAAO [4]; [16],3.2 ± 0.1 s⁻¹
N[C@H](Cc1ccc(O)cc1)C(=O)O [D-Tyrosine],Km,hDAAO [4]; [15],1100 µM
same,kcat,hDAAO [4]; [15],14.8 s⁻¹
Cc1cc2nc3c(=O)[nH]c(=O)nc-3n(C[C@H](O)[C@H](O)[C@H](O)COP(=O)(O)OP(=O)(O)OC[C@H]3O[C@@H](n4cnc5c(N)ncnc54)[C@H](O)[C@@H]3O)c2cc1C [FAD],Kd,"hDAAO apoprotein [5]; 7 μM benzoate, read-out: Kd, first phase",0.43 ± 0.02 µM
same,Kd,"hDAAO apoprotein [5]; 7 μM benzoate, read-out: Kd, second phase",19.1 ± 2.8 µM
same,Kd,"hDAAO apoprotein [5]; 70 μM benzoate, read-out: Kd, single saturation",0.48 ± 0.02 µM
same,Kd,"hDAAO apoprotein [5]; absence of active-site ligand, read-out: Kd, first phase",0.43 ± 0.02 µM
same,Kd,"hDAAO apoprotein [5]; absence of active-site ligand, read-out: Kd, second phase",> 30 µM
same,Kd,"hDAAO apoprotein [6]; 70 μM benzoate, monophasic, read-out: Kd",0.4 ± 0.04 µM
same,Kd,"hDAAO apoprotein [6]; absence of benzoate, ~1 μM FAD titrated with apoprotein, read-out: Kd, 1",0.67 ± 0.07 µM
same,Kd,"hDAAO apoprotein [6]; absence of benzoate, ~1 μM FAD titrated with apoprotein, read-out: Kd, 2",4 ± 0.9 µM
same,fold tighter interaction with FAD in the presence of an active site ligand,"hDAAO apoprotein [7]; active site ligand such as benzoate, ref Molla et al., 2006",20 fold
same,Kd,"hDAAO apoprotein [7]; benzoate binding, ref Molla et al., 2006, Caldinelli et al., 2010, read-out: Kd, flavin interaction with benzoate bound",0.3 µM
same,Kd,"hDAAO apoprotein [7]; interaction with the flavin cofactor, ref Molla et al., 2006, read-out: Kd",8 µM
Nc1nc2c(ncn2[C@@H]2O[C@H](COP(=O)(O)OP(=O)(O)OP(=O)(O)O)[C@@H](O)[C@H]2O)c(=O)[nH]1 [GTP],effect on hDAAO activity on D-alanine,hDAAO [2],not modified
NCC(=O)O [Glycine],"apparent Km, fold higher than physiological concentration",hDAAO [3],"~ 1,000 fold"
same,change in protein fluorescence,hDAAO holoenzyme [1]; up to 50 mM,no change
same,kcat,hDAAO [4]; [13],~ 0.9 s^−1
"CC(=O)N[C@@H](CS)C(=O)O [L-NAC, N-acetyl-L-cysteine]",effect on hDAAO activity,"hDAAO [2]; 1 or 10 mM, even when added 60 min before the assay",does not affect; also recorded: not altered
N[C@@H](CO)C(=O)O [L-serine],type of inhibition,hDAAO [8]; D-serine oxidation at increasing L-serine concentrations,competitive inhibitor
same,Ki,hDAAO [8]; competitive versus D-serine,26200 µM
same,time for reduction of hDAAO flavin,"hDAAO [9]; 14 μM hDAAO, 1 mM L-amino acid, anaerobic",> 60 min
CN[C@H](CC(=O)O)C(=O)O [N-Methyl-D-aspartate],Km,hDAAO [3],b. d.
same,kcat,hDAAO [3],b. d.
same,oxidation by hDAAO,hDAAO [3],not oxidized
same,change in protein fluorescence,hDAAO holoenzyme [1]; up to 50 mM,no change
same,reduction of FAD following anaerobic addition,"hDAAO [9]; compared with L-serine, not shown",not
O=C(O)c1ccccc1 [benzoate],Kd,"hDAAO holoenzyme [1]; higher ligand concentrations, ~80% of fluorescence change, read-out: Kd, second saturation",2590 ± 680 µM
same,Kd,"hDAAO holoenzyme [1]; low benzoate concentrations (≤ 20 μM), read-out: Kd, first saturation",0.33 ± 0.04 µM
same,Ki,hDAAO [10],7 µM
same,Kd,"hDAAO [11]; CD signal at ~270 nm, ref Caldinelli et al., 2010",9.5 µM
same,Kd,"hDAAO [11]; formation of a shoulder at 484 nm in the absorbance spectrum, ref Raibekas et al., 2000, Molla et al., 2006",5 to 7 µM
[Ca+2] [calcium ions],effect on far-UV CD spectrum / protein conformation,hDAAO holoenzyme [12],slightly modified
CN(C)CCCN1c2ccccc2Sc2ccc(Cl)cc21 [chlorpromazine],competition with FAD for the binding to hDAAO apoprotein,"hDAAO apoprotein [7]; ref Iwana et al., 2008, Sacchi et al.",compete with FAD
[Mg+2] [magnesium ions],effect on hDAAO activity,hDAAO [2]; 1 or 10 mM final concentration,do not modify
same,effect on far-UV CD spectrum / protein conformation,hDAAO holoenzyme [12],do not modify
